From PubChem BioAssay AID192 (DTP/NCI, 2004)
“And” between values parts separate entries of the source, which are not always exact repeats. Equal entries are not always repeated. Toxic doses and inconclusive results are not listed.

Tested on: BDF1 mice, B16 melanoma ip, median survival T/C
Assay: NCI In Vivo Anticancer Drug Screen. Data for tumor model B16 Melanoma (intraperitoneal) in B6D2F1 (BDF1) mice
Details: endpoint: median survival time, higher = longer survival
Summary of the method: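 Compounds were tested in mice carrying transplantable tumors. Survival or tumor size was recorded, and each value is the treated-group measurement (T) divided by that of the vehicle-treated control group (C).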

[1] = dose: 50.0 mg/kg/injection, schedule: Q01DX009 (ip), vehicle: Klucel (hydroxypropylcellulose) (HPC)
[2] = dose: 100.0 mg/kg/injection, schedule: Q01DX009 (ip), vehicle: Klucel (hydroxypropylcellulose) (HPC)
[3] = dose: 200.0 mg/kg/injection, schedule: Q01DX009 (ip), vehicle: Klucel (hydroxypropylcellulose) (HPC)
[4] = dose: 100.0 mg/kg/injection, schedule: Q01DX009 (ip), vehicle: saline with Tween-80
[5] = dose: 200.0 mg/kg/injection, schedule: Q01DX009 (ip), vehicle: saline with Tween-80
[6] = dose: 400.0 mg/kg/injection, schedule: Q01DX009 (ip), vehicle: Klucel (hydroxypropylcellulose) (HPC)
[7] = dose: 400.0 mg/kg/injection, schedule: Q01DX009 (ip), vehicle: saline with Tween-80
[8] = dose: 25.0 mg/kg/injection, schedule: Q01DX009 (ip), vehicle: Klucel (hydroxypropylcellulose) (HPC)
[9] = dose: 12.5 mg/kg/injection, schedule: Q01DX009 (ip), vehicle: saline
[10] = dose: 25.0 mg/kg/injection, schedule: Q01DX009 (ip), vehicle: saline
[11] = dose: 50.0 mg/kg/injection, schedule: Q01DX009 (ip), vehicle: saline
[12] = dose: 6.25 mg/kg/injection, schedule: Q01DX009 (ip), vehicle: Klucel (hydroxypropylcellulose) (HPC)
[13] = dose: 12.5 mg/kg/injection, schedule: Q01DX009 (ip), vehicle: Klucel (hydroxypropylcellulose) (HPC)
[14] = dose: 100.0 mg/kg/injection, schedule: Q01DX009 (ip), vehicle: saline
[15] = dose: 200.0 mg/kg/injection, schedule: Q01DX009 (ip), vehicle: saline
[16] = dose: 400.0 mg/kg/injection, schedule: Q01DX009 (ip), vehicle: saline

## c1ccc(Oc2ccccn2)cc1
[1]
  T/C: 111 % of control
[2]
  T/C: 117 % of control
[3]
  T/C: 123 % of control

## NCC(=O)Nc1ccc(O)cc1
dose: 150.0 mg/kg/injection, schedule: Q01DX009 (ip), vehicle: saline
  T/C: 94 % of control
dose: 300.0 mg/kg/injection, schedule: Q01DX009 (ip), vehicle: saline
  T/C: 105 % of control

## COc1ccc(C(=O)c2cc(OC)c(OC)c(OC)c2)cc1OC
[2]
  T/C: 110 % of control
[4]
  T/C: 111 % of control
[3]
  T/C: 105 % of control
[5]
  T/C: 104 % of control
[6]
  T/C: 115 % of control
[7]
  T/C: 102 % of control

## CCCCCCCCCCCCCC(=O)CCC
[8]
  T/C: 105 % of control
[1]
  T/C: 101 % of control
dose: 100.0 mg/kg/injection, schedule: Q01DX009 (ip), vehicle: other
  T/C: 88 % of control

## Cc1ccccc1N(CC1CO1)CC1CO1 (stereo unspecified)
dose: 50.0 mg/kg/injection, schedule: Q01DX009 (ip), vehicle: saline with Tween-80
  T/C: 152 % of control
[4]
  T/C: 180 % of control

## Br/C=C/C[N+]12CN3CN(CN(C3)C1)C2
[9]
  T/C: 117 % of control
[10]
  T/C: 103 % of control
[11]
  T/C: 110 % of control

## O=[N+]([O-])/C=C\c1ccc2c(c1)OCO2
dose: 22.0 mg/kg/injection, schedule: Q01DX009 (ip), vehicle: Klucel (hydroxypropylcellulose) (HPC)
  T/C: 96 % of control
dose: 33.0 mg/kg/injection, schedule: Q01DX009 (ip), vehicle: Klucel (hydroxypropylcellulose) (HPC)
  T/C: 108 % of control
[1]
  T/C: 96 % of control
dose: 75.0 mg/kg/injection, schedule: Q01DX009 (ip), vehicle: Klucel (hydroxypropylcellulose) (HPC)
  T/C: 100 % of control

## COc1cc2cc[n+](C)c(Cc3ccccc3)c2cc1OC
dose: 3.12 mg/kg/injection, schedule: Q01DX009 (ip), vehicle: Klucel (hydroxypropylcellulose) (HPC)
  T/C: 102 % of control
[12]
  T/C: 102 % of control
[13]
  T/C: 102 % of control
[8]
  T/C: 104 % of control

## CN1CCC=C(C(=O)N2c3ccccc3Sc3ccccc32)C1
[10]
  T/C: 102 % of control
[11]
  T/C: 96 % of control

## COc1ccc(COC(=O)CN2C(=O)c3ccccc3C2=O)cc1
[2]
  T/C: 105 % of control
[3]
  T/C: 107 % of control
[6]
  T/C: 100 % of control

## Nc1nc2n[nH]nc2c(=O)[nH]1
[10]
  T/C: 108 % of control
[11]
  T/C: 108 % of control
[14]
  T/C: 113 % of control
[15]
  T/C: 111 % of control

## S=C(SSSSC(=S)N1CCCCC1)N1CCCCC1
[2]
  T/C: 95 % of control
[3]
  T/C: 90 % of control
[6]
  T/C: 107 % of control

## CC1=CCC(C(C)C)C=C1 (stereo unspecified)
[8]
  T/C: 92 % of control
[1]
  T/C: 94 % of control
[2]
  T/C: 94 % of control
[3]
  T/C: 89 % of control

## NCCS(=O)(=O)O
[14]
  T/C: 105 % of control
[15]
  T/C: 107 % of control
[16]
  T/C: 110 % of control
dose: 800.0 mg/kg/injection, schedule: Q01DX009 (ip), vehicle: saline
  T/C: 102 % of control

## C=C1N(C)c2ccccc2C1(C)C
dose: 1.0 mg/kg/injection, schedule: Q01DX009 (ip), vehicle: saline with Tween-80
  T/C: 104 % of control
dose: 2.0 mg/kg/injection, schedule: Q01DX009 (ip), vehicle: saline with Tween-80
  T/C: 100 % of control
dose: 4.0 mg/kg/injection, schedule: Q01DX009 (ip), vehicle: saline with Tween-80
  T/C: 98 % of control
dose: 13.0 mg/kg/injection, schedule: Q01DX009 (ip), vehicle: saline with Tween-80
  T/C: 117 % of control
dose: 19.0 mg/kg/injection, schedule: Q01DX009 (ip), vehicle: saline with Tween-80
  T/C: 98 % of control
dose: 29.0 mg/kg/injection, schedule: Q01DX009 (ip), vehicle: saline with Tween-80
  T/C: 104 % of control
dose: 45.0 mg/kg/injection, schedule: Q01DX009 (ip), vehicle: saline with Tween-80
  T/C: 98 % of control

## C=CCN(C(=O)OCC)c1ccccc1
[2]
  T/C: 100 % of control
[3]
  T/C: 97 % of control

## CCNC(C)(C)C(S)c1ccc(Cl)s1 (stereo unspecified)
dose: 18.75 mg/kg/injection, schedule: Q01DX009 (ip), vehicle: saline with Tween-80
  T/C: 97 % of control
[8]
  T/C: 97 % of control
dose: 37.5 mg/kg/injection, schedule: Q01DX009 (ip), vehicle: saline with Tween-80
  T/C: 101 % of control
[1]
  T/C: 101 % of control
dose: 75.0 mg/kg/injection, schedule: Q01DX009 (ip), vehicle: saline with Tween-80
  T/C: 100 % of control
[2]
  T/C: 95 % of control
dose: 150.0 mg/kg/injection, schedule: Q01DX009 (ip), vehicle: saline with Tween-80
  T/C: 106 % of control

## c1ccc(COB(OCc2ccccc2)OCc2ccccc2)cc1
[14]
  T/C: 108 % of control
[15]
  T/C: 97 % of control
[16]
  T/C: 87 % of control

## COC(=O)CNc1ccc(S(=O)(=O)c2ccc(N)cc2)cc1
[2]
  T/C: 103 % of control
[3]
  T/C: 106 % of control
[6]
  T/C: 120 % of control

## Cc1cc(Cl)ccc1NS(=O)(=O)c1ccccc1
[2]
  T/C: 88 % of control
[3]
  T/C: 88 % of control

## CCCCNC(C)(C)C(SSSC(c1ccco1)C(C)(C)NCCCC)c1ccco1 (stereo unspecified)
dose: 3.13 mg/kg/injection, schedule: Q01DX009 (ip), vehicle: carboxymethylcellulose (CMC)
  T/C: 102 % of control
dose: 6.25 mg/kg/injection, schedule: Q01DX009 (ip), vehicle: carboxymethylcellulose (CMC)
  T/C: 102 % of control
dose: 12.5 mg/kg/injection, schedule: Q01DX009 (ip), vehicle: carboxymethylcellulose (CMC)
  T/C: 95 % of control
[8]
  T/C: 91 % of control
dose: 25.0 mg/kg/injection, schedule: Q01DX009 (ip), vehicle: carboxymethylcellulose (CMC)
  T/C: 86 % of control

## CC1CC(=O)c2ccccc2N1S(C)(=O)=O (stereo unspecified)
dose: 100.0 mg/kg/injection, schedule: Q04DX003 (ip), vehicle: Klucel (hydroxypropylcellulose) (HPC)
  T/C: 102 % of control
dose: 200.0 mg/kg/injection, schedule: Q04DX003 (ip), vehicle: Klucel (hydroxypropylcellulose) (HPC)
  T/C: 100 % of control
dose: 400.0 mg/kg/injection, schedule: Q04DX003 (ip), vehicle: Klucel (hydroxypropylcellulose) (HPC)
  T/C: 95 % of control

## O=C1CC2C=CCC12 (stereo unspecified)
[4]
  T/C: 107 % of control
[5]
  T/C: 100 % of control
[7]
  T/C: 91 % of control

## Cc1ccc(NC(=O)Nc2ccccc2Cl)cc1Cl
[1]
  T/C: 100 % of control
[2]
  T/C: 104 % of control

## O=C(O)C(=O)O
dose: 6.25 mg/kg/injection, schedule: Q01DX009 (ip), vehicle: saline
  T/C: 101 % of control
[9]
  T/C: 105 % of control
[10]
  T/C: 96 % of control and 108 % of control
[11]
  T/C: 95 % of control

## CC1(C)N=C(N)N=C(N)N1c1cccc(CCCCc2ccc(Cl)c(S(=O)(=O)F)c2)c1
dose: 3.13 mg/kg/injection, schedule: Q01DX009 (ip), vehicle: Klucel (hydroxypropylcellulose) (HPC)
  T/C: 94 % of control
[12]
  T/C: 100 % of control
[13]
  T/C: 94 % of control

## CCC1=C(c2cc(Cl)c3ccccc3c2OCC(=O)O)OC(CC)(C(=O)c2cc(Cl)c3ccccc3c2OCC(=O)O)CC1 (stereo unspecified)
[8]
  T/C: 102 % of control
dose: 30.0 mg/kg/injection, schedule: Q01DX009 (ip), vehicle: saline with Tween-80
  T/C: 90 % of control
[1]
  T/C: 102 % of control
dose: 60.0 mg/kg/injection, schedule: Q01DX009 (ip), vehicle: saline with Tween-80
  T/C: 93 % of control
[2]
  T/C: 102 % of control
dose: 100.0 mg/kg/injection, schedule: Q04DX003 (ip), vehicle: saline with Tween-80
  T/C: 110 % of control
dose: 120.0 mg/kg/injection, schedule: Q01DX009 (ip), vehicle: saline with Tween-80
  T/C: 93 % of control
dose: 200.0 mg/kg/injection, schedule: Q04DX003 (ip), vehicle: saline with Tween-80
  T/C: 95 % of control
dose: 240.0 mg/kg/injection, schedule: Q01DX009 (ip), vehicle: saline with Tween-80
  T/C: 86 % of control

## c1ccc2c(c1)OCCOCCOc1ccccc1OCCOCCO2
dose: 12.5 mg/kg/injection, schedule: Q04DX003 (ip), vehicle: Klucel (hydroxypropylcellulose) (HPC)
  T/C: 93 % of control
dose: 25.0 mg/kg/injection, schedule: Q04DX003 (ip), vehicle: Klucel (hydroxypropylcellulose) (HPC)
  T/C: 88 % of control
dose: 50.0 mg/kg/injection, schedule: Q04DX003 (ip), vehicle: Klucel (hydroxypropylcellulose) (HPC)
  T/C: 86 % of control

## COc1ccc2c(c1)CCC(c1ccccc1)=C2c1ccc(OCCN2CCCC2)cc1
dose: 6.0 mg/kg/injection, schedule: Q01DX009 (ip), vehicle: saline sonified
  T/C: 102 % of control
dose: 12.0 mg/kg/injection, schedule: Q01DX009 (ip), vehicle: saline sonified
  T/C: 111 % of control
dose: 24.0 mg/kg/injection, schedule: Q01DX009 (ip), vehicle: saline sonified
  T/C: 111 % of control
